This assay deals with Cannabinoid receptor (Rattus norvegicus, UniProt Q9QZN9+P20272). Kind of assay: Tested for affinity of compound against cannabinoid receptor in rat forebrain membranes. It is filed as cell membranes, Membrane.

Two compounds from ChEMBL document CHEMBL1127398, “(-)-11-Hydroxy-7'-isothiocyanato-1',1'-dimethylheptyl-delta 8-THC: a novel, high-affinity irreversible probe for the cannabinoid receptor in the brain” (J Med Chem, 1994) can be followed below.

For the compound `CCc1cc(C(C)(C)CCCCCCN=C=S)cc2c1[C@@H]1CC(CO)=CC[C@H]1C(C)(C)O2`, the IC50 was 0.0016 µM. In other words, the single-digit nanomolar range.
As for `CC1=CC2c3c(O)cc(CCCCN=[N+]=[N-])cc3OC(C)(C)[C@H]2CC1` (some centres not stated), the figure is 0.031 µM.
